Where two headings read alike, the source gives them in different places.
Key:
[1] = tested on: Human primary small intestinal epithelial cells (HSIEC)
[2] = tested on: COX-2; assay: COX-2 in HSIEC cells treated with TNF-α/IFN-γ (western blot, densitometry); assay type: cell-based, human; details: single agent, escalating doses
Procedure: Cell Culture: Human primary small intestinal epithelial cells (HSIEC), purchased from Cell Biologics were cultured in Epithelial Cell Medium/w Kit. HSIEC cells were incubated at 37° C. in a humidified atmosphere of 5% CO2. HSIEC cells were treated with mycoplasma removal reagent BM-Cyclin (Roche) to ensure mycoplasma negative before treatment.
To do so, COX-2, an enzyme which mediates the bioconversion of arachidonic acid to inflammatory prostaglandins (PGs), was measured via densitometry. GAPDH was used as a reference housekeeping marker for relative densitometry measures. […] Ethanol or DMSO was used, as indicated in the figures, as a vehicle for dilution and as a negative control showing the amount of the inflammatory marker present when inflammation was not induced.
Increasing doses of each molecule of interest, or each combination of molecules of interest, were then distributed to the HSIEC cells treated to induce inflammatory response. Inflammatory markers COX-2 and/or IL-6 were assessed at specific timepoints after induction of inflammation for protein content marker measured via western blot. GAPDH was used as a reference housekeeping marker for relative densitometry measures of protein content.

[3] = tested on: iNOS; assay: iNOS in HSIEC cells treated with TNF-α/IFN-γ; assay type: cell-based, human; details: 5, 10, 20, 40 μM
[4] = biological target: 5HT2A (Homo sapiens, UniProt P28223); details: printed with a question mark in the Average Dose column; cited from earlier work
Chain of 5HT2A (P28223 whole entry): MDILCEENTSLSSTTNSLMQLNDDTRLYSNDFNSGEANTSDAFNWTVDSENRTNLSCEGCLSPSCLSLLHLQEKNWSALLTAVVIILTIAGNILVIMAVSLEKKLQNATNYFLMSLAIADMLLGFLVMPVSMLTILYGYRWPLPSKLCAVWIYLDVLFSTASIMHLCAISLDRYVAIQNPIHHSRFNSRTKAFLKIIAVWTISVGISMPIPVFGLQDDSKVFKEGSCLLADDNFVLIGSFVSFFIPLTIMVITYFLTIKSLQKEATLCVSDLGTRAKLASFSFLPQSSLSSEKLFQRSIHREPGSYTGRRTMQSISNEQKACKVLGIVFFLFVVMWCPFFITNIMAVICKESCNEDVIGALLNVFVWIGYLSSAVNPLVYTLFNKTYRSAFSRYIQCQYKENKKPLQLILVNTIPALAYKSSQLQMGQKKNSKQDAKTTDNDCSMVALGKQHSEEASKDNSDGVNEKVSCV

[5] = tested on: A-172 glioblastoma cells; assay: MTT cell viability assay in A-172 cells; details: Psilocybin + Eugenol section, 25 μM EUG
[6] = tested on: TRPA1; details: TRPA1 overexpressing CHO cells and trigeminal neurons; cited from earlier work
[7] = tested on: anandamide levels; details: chronic, but not acute, administration of 150 mg/kg (Smalheiser, 2019); cited from earlier work

## CC(=O)Oc1cccc2[nH]cc(CCN(C)C)c12 [4-ACO-DMT, 3-[2-(dimethylamino)ethyl]-4-acetoxyindole]
[1]
  effect on cell growth / cellular metabolic activity (MTT, words): increase growth of cells
[2]
  doses reducing COX-2 to the greatest extent: 40 µM
[3]
  dose reducing iNOS to the greatest extent: 10 µM
  doses resulting in reduction of iNOS: all doses

## CCN(C(=O)[C@@H]1C=C2c3cccc4[nH]cc(c34)C[C@H]2N(C)C1)C1CC1 [ECPLA, D-N-ethyl-N-cyclopropyllysergamide]
[4]
  potency of LSD: 40% potency % potency of LSD

## C=CCc1ccc(O)c(OC)c1 [EUG]
[5]; 24 h
  Cellular Metabolic Activity: 0.202
[5]; 48 h
  Cellular Metabolic Activity: 0.297
[5]; 72 h
  Cellular Metabolic Activity: 0.473
[5]; 96 h
  Cellular Metabolic Activity: 0.319
[5]; time 0
  Cellular Metabolic Activity: 0.134

## CCC(CC)NC(=O)[C@@H]1C=C2c3cccc4[nH]cc(c34)C[C@H]2N(C)C1 [LSP, D-lysergic acid 3-pentyl amide]
[4]
  potency of LSD: 75% potency % potency of LSD

## CCCCCc1cc(O)c2c(c1)OC(C)(C)[C@@H]1CCC(C)=C[C@@H]21 [THC, delta-9-tetrahydrocannabinol]
[6]
  TRPA1 activation: activate TRPA1

## CCCCCc1cc(O)c2c(c1)OC(C)(C)c1ccc(C)cc1-2 [cannabinol]
[6]
  TRPA1 activation: activate TRPA1

## COc1cc(CNC(=O)CCCC/C=C/C(C)C)ccc1O [capsaicin]
[1]
  effect on cell growth / cellular metabolic activity (MTT, words): All initial doses of capsaicin were found to be inhibitory
[1]; 0.5 μM, 24 h
  Cellular Metabolic Activity: 0.088
[1]; 0.5 μM, 48 h
  Cellular Metabolic Activity: 0.154
[1]; 0.5 μM, 72 h
  Cellular Metabolic Activity: 0.288
[1]; 0.5 μM, 96 h
  Cellular Metabolic Activity: 0.469
[1]; 0.5 μM, time 0
  Cellular Metabolic Activity: 0.068
[1]; 1 μM, 24 h
  Cellular Metabolic Activity: 0.084
[1]; 1 μM, 48 h
  Cellular Metabolic Activity: 0.150
[1]; 1 μM, 72 h
  Cellular Metabolic Activity: 0.326
[1]; 1 μM, 96 h
  Cellular Metabolic Activity: 0.502
[1]; 1 μM, time 0
  Cellular Metabolic Activity: 0.066
[1]; 5 μM, 24 h
  Cellular Metabolic Activity: 0.080
[1]; 5 μM, 48 h
  Cellular Metabolic Activity: 0.148
[1]; 5 μM, 72 h
  Cellular Metabolic Activity: 0.296
[1]; 5 μM, 96 h
  Cellular Metabolic Activity: 0.477
[1]; 5 μM, time 0
  Cellular Metabolic Activity: 0.068
[1]; 10 μM, 24 h
  Cellular Metabolic Activity: 0.075
[1]; 10 μM, 48 h
  Cellular Metabolic Activity: 0.174
[1]; 10 μM, 72 h
  Cellular Metabolic Activity: 0.331
[1]; 10 μM, 96 h
  Cellular Metabolic Activity: 0.708
[1]; 10 μM, time 0
  Cellular Metabolic Activity: 0.040
[1]; 50 μM, 24 h
  Cellular Metabolic Activity: 0.062
[1]; 50 μM, 48 h
  Cellular Metabolic Activity: 0.155
[1]; 50 μM, 72 h
  Cellular Metabolic Activity: 0.292
[1]; 50 μM, 96 h
  Cellular Metabolic Activity: 0.681
[1]; 50 μM, time 0
  Cellular Metabolic Activity: 0.036
[1]; 100 μM, 24 h
  Cellular Metabolic Activity: 0.063
[1]; 100 μM, 48 h
  Cellular Metabolic Activity: 0.150
[1]; 100 μM, 72 h
  Cellular Metabolic Activity: 0.272
[1]; 100 μM, 96 h
  Cellular Metabolic Activity: 0.623
[1]; 100 μM, time 0
  Cellular Metabolic Activity: 0.036
[1]; 200 μM, 24 h
  Cellular Metabolic Activity: 0.044
[1]; 200 μM, 48 h
  Cellular Metabolic Activity: 0.082
[1]; 200 μM, 72 h
  Cellular Metabolic Activity: 0.144
[1]; 200 μM, 96 h
  Cellular Metabolic Activity: 0.231
[1]; 200 μM, time 0
  Cellular Metabolic Activity: 0.040
[1]; 400 μM, 24 h
  Cellular Metabolic Activity: 0.016
[1]; 400 μM, 48 h
  Cellular Metabolic Activity: 0.031
[1]; 400 μM, 72 h
  Cellular Metabolic Activity: 0.016
[1]; 400 μM, 96 h
  Cellular Metabolic Activity: 0.018
[1]; 400 μM, time 0
  Cellular Metabolic Activity: 0.039
[1]; 800 μM, 24 h
  Cellular Metabolic Activity: 0
[1]; 800 μM, 48 h
  Cellular Metabolic Activity: 0
[1]; 800 μM, 72 h
  Cellular Metabolic Activity: 0
[1]; 800 μM, 96 h
  Cellular Metabolic Activity: 0
[1]; 800 μM, time 0
  Cellular Metabolic Activity: 0.041
[1]; human
  doses showing no effect (MTT): < 10 µM

## COc1cc(/C=C/C(=O)CC(=O)/C=C/c2ccc(O)c(OC)c2)ccc1O [curcumin, (1E,6E)-1,7-bis(4-hydroxy-3-methoxyphenyl) hepta-1,6-diene-3,5-dione]
[1]; 1 μM, 24 h
  Cellular Metabolic Activity: 0.086
[1]; 1 μM, 48 h
  Cellular Metabolic Activity: 0.184
[1]; 1 μM, 72 h
  Cellular Metabolic Activity: 0.375
[1]; 1 μM, 96 h
  Cellular Metabolic Activity: 0.611
[1]; 1 μM, time 0
  Cellular Metabolic Activity: 0.040
[1]; 5 μM, 24 h
  Cellular Metabolic Activity: 0.079
[1]; 5 μM, 48 h
  Cellular Metabolic Activity: 0.148
[1]; 5 μM, 72 h
  Cellular Metabolic Activity: 0.299
[1]; 5 μM, 96 h
  Cellular Metabolic Activity: 0.595
[1]; 5 μM, time 0
  Cellular Metabolic Activity: 0.036
[1]; 10 μM, 24 h
  Cellular Metabolic Activity: 0.070
[1]; 10 μM, 48 h
  Cellular Metabolic Activity: 0.115
[1]; 10 μM, 72 h
  Cellular Metabolic Activity: 0.215
[1]; 10 μM, 96 h
  Cellular Metabolic Activity: 0.466
[1]; 10 μM, time 0
  Cellular Metabolic Activity: 0.036
[1]; 20 μM, 24 h
  Cellular Metabolic Activity: 0.059
[1]; 20 μM, 48 h
  Cellular Metabolic Activity: 0.057
[1]; 20 μM, 72 h
  Cellular Metabolic Activity: 0.060
[1]; 20 μM, 96 h
  Cellular Metabolic Activity: 0.038
[1]; 20 μM, time 0
  Cellular Metabolic Activity: 0.040
[1]; 40 μM, 24 h
  Cellular Metabolic Activity: 0.038
[1]; 40 μM, 48 h
  Cellular Metabolic Activity: 0.026
[1]; 40 μM, 72 h
  Cellular Metabolic Activity: 0.014
[1]; 40 μM, 96 h
  Cellular Metabolic Activity: 0.00
[1]; 40 μM, time 0
  Cellular Metabolic Activity: 0.039
[1]; 80 μM, 24 h
  Cellular Metabolic Activity: 0.042
[1]; 80 μM, 48 h
  Cellular Metabolic Activity: 0.019
[1]; 80 μM, 72 h
  Cellular Metabolic Activity: 0.018
[1]; 80 μM, 96 h
  Cellular Metabolic Activity: 0.005
[1]; 80 μM, time 0
  Cellular Metabolic Activity: 0.041
[7]
  anandamide levels in a variety of brain regions: significantly raised

## O=C(c1ccc(F)cc1)C1CCN(CCn2c(=O)[nH]c3ccccc3c2=O)CC1 [ketanserin, reference compound]
[1]; human
  concentration above which inhibitory effect / significant toxicity (MTT): above 20 μM
[2]
  doses resulting in reduction of COX-2: none of the doses

## O=C(/C=C/C=C/c1ccc2c(c1)OCO2)N1CCCCC1 [piperine]
[1]
  effect on cell growth / cellular metabolic activity (MTT, words): could only be studied at very low dose
[1]; 5 μM, 24 h
  Cellular Metabolic Activity: 0.077
[1]; 5 μM, 48 h
  Cellular Metabolic Activity: 0.170
[1]; 5 μM, 72 h
  Cellular Metabolic Activity: 0.278
[1]; 5 μM, 96 h
  Cellular Metabolic Activity: 0.517
[1]; 5 μM, time 0
  Cellular Metabolic Activity: 0.035
[1]; 10 μM, 24 h
  Cellular Metabolic Activity: 0.073
[1]; 10 μM, 48 h
  Cellular Metabolic Activity: 0.183
[1]; 10 μM, 72 h
  Cellular Metabolic Activity: 0.271
[1]; 10 μM, 96 h
  Cellular Metabolic Activity: 0.438
[1]; 10 μM, time 0
  Cellular Metabolic Activity: 0.026
[1]; 20 μM, 24 h
  Cellular Metabolic Activity: 0.075
[1]; 20 μM, 48 h
  Cellular Metabolic Activity: 0.166
[1]; 20 μM, 72 h
  Cellular Metabolic Activity: 0.268
[1]; 20 μM, 96 h
  Cellular Metabolic Activity: 0.445
[1]; 20 μM, time 0
  Cellular Metabolic Activity: 0.022
[1]; 40 μM, 24 h
  Cellular Metabolic Activity: 0.069
[1]; 40 μM, 48 h
  Cellular Metabolic Activity: 0.169
[1]; 40 μM, 72 h
  Cellular Metabolic Activity: 0.226
[1]; 40 μM, 96 h
  Cellular Metabolic Activity: 0.423
[1]; 40 μM, time 0
  Cellular Metabolic Activity: 0.025
[1]; 80 μM, 24 h
  Cellular Metabolic Activity: 0.068
[1]; 80 μM, 48 h
  Cellular Metabolic Activity: 0.171
[1]; 80 μM, 72 h
  Cellular Metabolic Activity: 0.224
[1]; 80 μM, 96 h
  Cellular Metabolic Activity: 0.391
[1]; 80 μM, time 0
  Cellular Metabolic Activity: 0.026
[1]; 100 μM, 24 h
  Cellular Metabolic Activity: 0.071
[1]; 100 μM, 48 h
  Cellular Metabolic Activity: 0.175
[1]; 100 μM, 72 h
  Cellular Metabolic Activity: 0.248
[1]; 100 μM, 96 h
  Cellular Metabolic Activity: 0.410
[1]; 100 μM, time 0
  Cellular Metabolic Activity: 0.030
[1]; 200 μM, 24 h
  Cellular Metabolic Activity: 0.071
[1]; 200 μM, 48 h
  Cellular Metabolic Activity: 0.171
[1]; 200 μM, 72 h
  Cellular Metabolic Activity: 0.243
[1]; 200 μM, 96 h
  Cellular Metabolic Activity: 0.426
[1]; 200 μM, time 0
  Cellular Metabolic Activity: 0.027
[1]; 400 μM, 24 h
  Cellular Metabolic Activity: 0.068
[1]; 400 μM, 48 h
  Cellular Metabolic Activity: 0.191
[1]; 400 μM, 72 h
  Cellular Metabolic Activity: 0.187
[1]; 400 μM, 96 h
  Cellular Metabolic Activity: 0.255
[1]; 400 μM, time 0
  Cellular Metabolic Activity: 0.031
[2]
  doses reducing COX-2 to the greatest extent: 2.5 µM

Source: patent US20230405028A1 (priority 2020, published 2023)
